In patent publication US20110212031A1, “NOVEL SUBSTITUTED AZABENZOXAZOLES” (priority 2008, published 2011):
pIC50, pKi: −log10 of the molar value.

Tests used:
human MAO-B [1] = biological target: T1, human MAO-B (Homo sapiens, UniProt P27338); experiment: Monoamine oxidase B functional assay (kynuramine deamination, fluorescence); format: biochemical; conditions: membrane fractions from insect cells expressing human MAO-B; kynuramine substrate
T1 construct: purchased BD Biosciences Discovery Labware, Woburn Mass; (BD Supersomes Enzymes); host or cells: insect cells
T1 sequence (P27338 1-520): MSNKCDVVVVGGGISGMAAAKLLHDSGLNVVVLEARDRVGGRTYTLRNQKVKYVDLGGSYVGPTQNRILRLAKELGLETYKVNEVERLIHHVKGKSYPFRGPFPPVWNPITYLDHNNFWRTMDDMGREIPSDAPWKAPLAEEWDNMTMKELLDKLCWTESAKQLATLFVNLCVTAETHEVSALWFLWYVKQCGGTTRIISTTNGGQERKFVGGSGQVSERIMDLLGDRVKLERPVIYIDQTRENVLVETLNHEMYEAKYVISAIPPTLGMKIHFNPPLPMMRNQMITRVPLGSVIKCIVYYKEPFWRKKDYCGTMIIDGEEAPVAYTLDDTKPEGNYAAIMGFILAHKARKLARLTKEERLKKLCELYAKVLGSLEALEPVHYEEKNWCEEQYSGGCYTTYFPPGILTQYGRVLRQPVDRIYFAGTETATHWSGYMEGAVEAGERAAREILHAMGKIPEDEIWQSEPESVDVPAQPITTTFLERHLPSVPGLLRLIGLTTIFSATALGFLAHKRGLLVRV
Description: Functional assay: MAO-B containing membrane fractions prepared from insect cells expressing human MAO-B (BD Supersomes Enzymes, BD Biosciences Discovery Labware, Woburn Mass.) were used as a source of MAO-B. Assays were conducted in 96-well plates in a final volume of 200 μL. The assay buffer was 0.1 M potassium phosphate (pH 7.4). The assay system consisted of three mixes: a) inhibitor dilution mix, which was the assay buffer, b) substrate/buffer/control insect cell protein mix: 4× substrate-80 μM kynuramine and 4× control insect cell protein, and c) enzyme/buffer mix: 4× concentrate of MAO-B prepared in assay buffer. The final MAO-B concentration was 0.015 mg/mL. The final total, normalized protein concentration, using control insect protein, was 0.06 mg/mL. Test compounds were serial diluted 3-fold in the inhibitor dilution mix directly in the 96-well plate (total final volume of 100 μL). Fifty μL of the substrate/buffer mix was added to each well. The 96-well plate, containing test compound and MAO substrate (150 μL total volume), was preincubated to 37° C. The reaction was initiated with 50 μL of enzyme/buffer mix. […] Product formation was quantified by comparing the fluorescence emission of the samples to that of known amounts of authentic metabolite standard, 4-hydroxyquinoline, the product formed from kynuramine deamination. […]

human MAO-B [2] = biological target: T1, human MAO-B; experiment: MAO-B radioligand binding assay ([3H]-DMAB or [3H] 5-Fluoro-2-(1-methyl-1H-indazol-5-yl)-oxazolo[5,4-b]pyridine); conditions: membrane fractions from insect cells expressing human MAO-B; radioligand 8-10 nM
Description: Radioligand binding assay: MAO-B containing membrane fractions prepared from insect cells expressing human MAO-B (BD Supersomes Enzymes, BD Biosciences Discovery Labware, Woburn Mass.) were used as a source of MAO-B. [^3H]-DMAB or [^3H] 5-Fluoro-2-(1-methyl-1H-indazol-5-yl)-oxazolo[5,4-b]pyridine were synthesized at a specific activity of ˜80 Ci/mmol. The final concentration of radioligand for tissue homogenate binding assay was 8-10 nM. MAO-B membrane fractions were diluted with phosphate buffered saline (PBS) to 0.25 mg/mL from original 5 mg/mL volume and 200 μl was used in assay for a final mass of 50 μg/assay tube. Unlabeled test compounds were dissolved in dimethylsulfoxide (DMSO) at 1 mM. Dilution of test compound to various concentrations was made with PBS containing 2% DMSO. Total binding was defined in the absence of competing compound, and non-displaceable binding was determined in the presence of 1 μM unlabeled self block. Compound dilutions (10×) were added into the assay tube (25 μL each per tube, separately) containing 200 μL diluted MAO-B membrane fraction, and the tubes were pre-incubated at room temperature for 10 minutes. […] Filters were punched into scintillation vials and counted in 2 mL Ultima Gold on Perkin Elmer Tri-Carb 2900TR for 1 minute. […]

`Cn1ccc2cc(-c3nc4ccc(F)nc4o3)cnc21` gave a pKi (human MAO-B [1]) of 7.74.

For `Cn1ccc2cc(-c3nc4ccc(F)nc4s3)cnc21`, the pIC50 (human MAO-B [2]) was 8.43.

`CN(C)c1ccc(-c2nc3ccc(F)nc3o2)cc1` gave a pIC50 (human MAO-B [2]) of 7.51.
